Assay results: patent US20050209299A1, “Inhibition of mixed lineage kinases and uses therefor” (University of Maryland, Baltimore, priority 2004, published 2005)

Experiments:
ERK pathway = conditions: neuronal cells, reported (12); cited from earlier work
MLK3 [1] = target: T1, MLK3 (Homo sapiens, UniProt Q16584); experiment: MLK3 induced JNK phosphorylation in transfected cells (immunoblot); format: cell-based
T1 construct: expressed in transfected cells; host or cells: HeLa
Procedure: (§1) HeLa, NIH 3T3, HEK293, A549, or MRC-5 cells were grown in a DMEM supplemented with 10% fetal bovine serum (FBS) and penicillin (100 U/ml) and streptomycin (100 μg/ml). Estrogen receptor (ER) negative breast cancer cells, SUM-159, were obtained from the University of Michigan Human Breast Cancer Cell Lines (SUM-Lines) and grown in DMEM+10% FBS. In some experiments, cells were transfected with cDNA (1 μg) for pEGFP (BD Biosciences/Clontech, Palo Alto, Calif.), hemagglutinin (HA)-tagged MLK3, kinase dead mutant MLK3 (MLK3 K144R), GFP-tagged MLK2 (kindly provided by Dr. Donna Dorow), Flag-tagged DLK, or HA-tagged JNK1 using Lipofectamine® (Invitrogen, Carlsbad, Calif.). Transfected cells were harvested 16-24 hours after transfection.
(§2) For protein analysis, cells were washed twice with cold phosphate buffered saline (PBS), lysed with 300 μl of tissue lysis buffer (TLB) (20 mM Tris-base, pH 7.4, 137 mM NaCl, 2 mM EDTA, 1% Triton X-100, 25 mM β-glycerophosphate, 2 mM sodium pyrophosphate, 10% glycerol, 1 mM sodium orthovanadate, 1 mM phenylmethysulfonyl fluoride (PMSF), and 1 mM benzamidine) and centrifuged at 20,000×g to clarify lysates. Approximately 20 μg of total protein was separated by SDS-PAGE. […] Immunoreactivity was detected by enhanced chemiluminescence (ECL; Amersham, Buckinghamshire, England).

MLK3 [2] = target: T1, MLK3; conditions: reference 11; cited from earlier work
MLK3 [3] = target: T1, MLK3; experiment: MLK3-induced ERK activation in transfected HeLa cells (ppERK immunoblot); format: cell-based; conditions: CEP-11004 500 nM
Procedure: as §1, §2

HEK293 cells = experiment: FACS analysis of DNA content (cell cycle); format: cell-based; conditions: treated for 20 hours; indicative of arrest in G2 or M-phase
Procedure: (§3) Synchronized cells were trypsinized, washed with PBS, fixed with 3 ml of cold (−20° C.) 70% ethanol, and stored at 4° C. overnight. Cells then were incubated with 100 μg/ml propidium iodide (Sigma) dissolved in 0.2 M Tris, pH 7.5, 20 mM EDTA, 1 mg/ml RNase A (Sigma) for 1 hour at room temperature and diluted with an equal volume of PBS. DNA content was measured by flow cytometry (FACScan Analyzer, BD Biosciences) and was analyzed using the Sync Wizard Model, ModFit LT software (BD Biosciences). To determine the percentage of G1, S and G2/M-phase cells, the settings for 2N and 4N peaks were defined within each experiment from the G1/S arrested cells and applied to all samples within a given experiment.

Cdc2 = Cdc2 kinase activity (immunoprecipitated, histone substrate) in synchronized HeLa cells; format: cell-based
Procedure: (§4) In some experiments, cells were synchronized by double thymidine block as previously described (18-19). Briefly, cells were incubated for 16 hours with 2 mM thymidine in 10% FBS containing DMEM. The excess thymidine was washed off with Hanks Buffered Saline Solution (HBSS) and cells were released back into the cell cycle with complete medium. After 8 hours, cells were treated a second time with 2 mM thymidine in 10% FBS containing DMEM for another 16 hours to arrest cells at the G1/S-phase boundary. Synchronized cells were then washed with HBSS and released back into the cell cycle and harvested at various time points after G1/S release for analysis. Cell cycle analysis was done by fluorescence activated cell sorting (FACS) as described below.
Cdc2 was immunoprecipitated from cell lysates by incubating with Cdc2 antibody (0.5 μg) for 2 hours on ice. The lysates then were incubated with protein G-sepharose with mixing at 4° C. for an additional 2 hours. The immune-complex was washed with cold kinase buffer and incubated for 30 min at 30° C. with kinase buffer containing 10 μCi γ-^32P ATP, 20 μM cold ATP, and 2.5 μg histone (Type III-SS, Sigma) as a substrate. The reactions were stopped with SDS-PAGE sample buffer and the proteins were resolved by SDS-PAGE. Incorporation of ^32P into histone was determined by phosphorimager analysis.

[4] = tested on: A549 airway epithelia carcinoma cell; experiment: Colony formation assay; format: cell-based; conditions: varying doses, 14 days, crystal violet
Procedure: (§5) Following treatments cells were counted on a hemocytometer following trypsinization and staining with trypan blue (Sigma). Greater than 95% of the cells excluded trypan blue dye. Cell proliferation also was measured using a colony formation assay. […] Following incubation for 8-14 days, cells were fixed for 10 minutes in 4% paraformaldehyde and stained with 0.2% crystal violet (in 20% methanol) for 1-2 minutes. Cells were washed several times with distilled water and colonies formed (at least 40 cells/per colony) were counted.

HeLa cells [5] = experiment: Mitotic spindle immunostaining (α/γ-tubulin, DAPI) in synchronized HeLa cells; format: cell-based
Procedure: as §4
(§6) Cells grown on round glass coverslips in 6-centimeter plates were synchronized at the G1/S-phase boundary using excess thymidine as described in Example 4. At the indicated time after release back into the cell cycle, coverslips were fixed with 4% paraformaldehyde for 8 minutes and permeabilized with 0.1% Triton X-100 in PBS for 2 minutes. Cell staining patterns were confirmed in cells that were fixed and permeabilized with cold methanol for 10 minutes. Cells were stained with antibodies against MLK3, α-tubulin, cyclin B1, phospho-specific histone H3, or p62 nucleoporin followed by incubation with fluorescein or Texas Red conjugated secondary antibodies and counterstaining for cellular DNA with 4′,6-diamidino-2-phenylindole (DAPI, 0.2 μg/ml in PBS). Cells were identified using Nikon E800 Epi-fluorescence microscope (Image Systems, Columbia, Md.) and captured with a Hamamatsu CCD camera. Cell images were processed using IPlab software (Scanalytics, Fairfax, Va.).

MKK1 = experiment: Constitutively active MKK1 induced ERK activation in transfected HeLa cells (ppERK immunoblot); format: cell-based; conditions: CEP-11004 500 nM
Procedure: as §1, §2

HeLa cells [6] = experiment: Mitotic index / mitotic stage assay (DAPI) in synchronized HeLa cells; format: cell-based
Procedure: as §4
Cells grown on coverslips were synchronized at the G1/S-phase boundary as described in Examples 4-5. In some cases, MLK3 was co-expressed with the pEGFP vector in order to identify transfected cells. […] At varying times after release, coverslips were fixed and cellular DNA was stained with DAPI. GFP-positive mitotic cells in prophase, prometaphase, metaphase, anaphase, or telophase were identified, counted, and expressed as a fraction of the total cells counted to determine the mitotic index. Within each experiment, 300 to 350 cells were counted for each condition and time point.

HeLa cells [7] = experiment: Cell proliferation assay (cell counting, trypan blue); format: cell-based; conditions: CEP-11004 500 nM, up to 72 hours, cell number
Procedure: as §5

NIH 3T3 cells = experiment: as above; format: cell-based; conditions: CEP-11004 500 nM, up to 72 hours, cell number
Procedure: as §5

MLK3 [8] = target: T1, MLK3; experiment: MLK3 kinase assay (immunoprecipitated from treated transfected cells, MBP substrate); format: cell-based
Procedure: Immunoprecipitated MLK3 was incubated for 45 min at 30° C. with kinase buffer containing 10 μCi γ-^32P ATP, 20 μM cold ATP, and 0.5 μg myelin basic protein (MBP) as a substrate. The reaction was quenched with 2×SDS sample buffer, separated by SDS-PAGE and transferred to PVDF membranes (Perkin Elmer, Boston, Mass.). Radioactive phosphate incorporation into MBP and MLK3 were analyzed by phosphorimager (Amersham Biosciences/Molecular Dynamics) and immunoblotting, respectively.

histone H3 = experiment: Phospho-histone H3 (serine 10) immunofluorescence in synchronized HeLa cells; format: cell-based
Procedure: as §4, §6

HeLa cells [9] = experiment: FACS analysis of DNA content (cell cycle); format: cell-based
Procedure: as §4
as §3, with “To determine the percentage of G1, S and G2/M-phase cells, the settings for 2N and 4N peaks were defined within each experiment from the G1/S arrested cells and applied to all samples within a given experiment.” left out

cyclin B1 = experiment: Cyclin B1 immunoblot in synchronized HeLa cells; format: cell-based
Procedure: as §4
For protein analysis, cells were washed twice with cold phosphate buffered saline (PBS), lysed with 300 μl of tissue lysis buffer (TLB) (20 mM Tris-base, pH 7.4, 137 mM NaCl, 2 mM EDTA, 1% Triton X-100, 25 mM β-glycerophosphate, 2 mM sodium pyrophosphate, 10% glycerol, 1 mM sodium orthovanadate, 1 mM phenylmethysulfonyl fluoride (PMSF), and 1 mM benzamidine) and centrifuged at 20,000×g to clarify lysates. Approximately 20 μg of total protein was separated by SDS-PAGE. Proteins were transferred to PVDF membrane (Perkin Elmer Life Sciences; Boston, Mass.), blocked for 1-2 hours with 5% nonfat dry milk in Tris-buffered saline (TBS) (50 mM Tris-base, pH 7.4, 0.15 M NaCl, and 0.1% Tween-20) and incubated with the primary antibodies in TBS containing 1% BSA solution for 1 to 16 hours. Membranes were washed several times in TBS-Tween solution and incubated with HRP conjugated anti-mouse or anti-rabbit antibodies (0.1 μg/ml). Immunoreactivity was detected by enhanced chemiluminescence (ECL; Amersham, Buckinghamshire, England).

[10] = 11 and 13 hours after G1/S-phase release, vs untreated
[11] = treated at end of S-phase for 4 hours
[12] = 400 nM, added 5 hours after release

T1 sequence (Q16584 whole entry): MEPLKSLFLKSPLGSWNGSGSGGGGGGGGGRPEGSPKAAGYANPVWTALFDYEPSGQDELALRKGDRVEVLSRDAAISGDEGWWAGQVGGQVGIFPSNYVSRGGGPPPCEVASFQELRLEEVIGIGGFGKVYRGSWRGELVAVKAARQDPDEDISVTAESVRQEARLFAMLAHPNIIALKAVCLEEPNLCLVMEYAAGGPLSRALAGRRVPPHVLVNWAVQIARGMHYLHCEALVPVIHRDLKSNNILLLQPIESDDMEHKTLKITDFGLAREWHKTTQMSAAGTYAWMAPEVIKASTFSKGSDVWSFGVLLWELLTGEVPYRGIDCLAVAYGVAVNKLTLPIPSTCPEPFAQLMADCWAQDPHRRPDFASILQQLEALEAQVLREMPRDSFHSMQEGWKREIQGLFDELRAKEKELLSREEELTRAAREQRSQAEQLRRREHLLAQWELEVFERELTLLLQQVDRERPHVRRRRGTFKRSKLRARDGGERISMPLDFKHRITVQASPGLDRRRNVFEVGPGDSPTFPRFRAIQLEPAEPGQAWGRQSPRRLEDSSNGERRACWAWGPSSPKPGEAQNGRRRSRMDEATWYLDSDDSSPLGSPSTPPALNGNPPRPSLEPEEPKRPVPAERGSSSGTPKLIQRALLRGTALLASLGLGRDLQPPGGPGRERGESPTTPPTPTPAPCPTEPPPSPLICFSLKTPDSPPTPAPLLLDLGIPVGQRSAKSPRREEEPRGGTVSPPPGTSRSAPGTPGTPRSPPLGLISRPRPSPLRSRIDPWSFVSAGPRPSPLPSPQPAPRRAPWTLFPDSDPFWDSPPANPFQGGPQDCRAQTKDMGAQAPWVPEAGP

Compound: CCSCc1ccc2c(c1)c1c3c(c4c5cc(CSCC)ccc5n5c4c1n2[C@H]1C[C@](O)(C(=O)OC)[C@]5(C)O1)CNC3=O (relative stereo) [CEP-1347, 3,9-bis[(ethylthio)methyl]-(8R*,9S*,11-S*)-(−)-9-hydroxy-9-methoxycarbonyl-8-methyl 2,3,9,10-tetrahydro-8,11-epoxy-1H,8H, 11H-2,7b,11a-triazadibenzo(a,g)cycloocta(cde)trinden-1-one]
- effect on the ERK pathway (ERK pathway): activate the ERK pathway

Compound: 3,9-bis-[(isopropylthio)methyl]-(8R*,9S*, 11S*)-(−)-9-hydroxy-9-methoxycarbonyl-8-methyl-2,3,9,10-tetrahydro-8,11-epoxy-1H,8H,11H-2,7b,11a-triazadibenzo(a,g)cycloocta(cde)trinden-1-one [CEP-11004]
- inhibition of MLK3 induced JNK1 phosphorylation (MLK3 [1]; 100 nM CEP-11004, HA-MLK3 + HA-JNK1 co-expressed): 80%
- MLK3 induced JNK phosphorylation (MLK3 [1]; CEP-11004 500 nM, 4 hours, transfected cells): inhibited MLK3
- specificity towards MLK3 as compared to MLK2 (MLK3 [2]): approximately 3 fold
- MLK3-induced ERK activation (MLK3 [3]): inhibited
- DNA content by FACS, HEK293 cells (HEK293 cells): accumulated 4N DNA
- Cdc2 kinase activity in synchronized HeLa cells (Cdc2; [10]): elevated Cdc2 kinase activity
- Cdc2 activity in mock transfected vs MLK3 transfected cells (Cdc2; 100 or 200 nM CEP-11004): higher Cdc2 activity
- A549 colony formation [4]: dose dependent inhibition
- chromosome organization (DAPI) (HeLa cells [5]; [11]): highly disorganized
- microtubule organization (α-tubulin) in mitotic cells (HeLa cells [5]; [11]): significant disruption
- mitotic cells with aberrant microtubule organization (HeLa cells [5]; [11]): Greater than 60%
- number of spindle poles (γ-tubulin) (HeLa cells [5]; [11]): no effect
- microtubules of interphase cells (HeLa cells [5]; treated for 4 hours, data not shown): no apparent effects
- activity of MKK1 (non-MLK related protein kinase) (MKK1): does not affect
- cells in metaphase or anaphase/telophase at 9 hours after G1/S (HeLa cells [6]; [12]): not evident
- mitotic stage at 11 hours after G1/S release (HeLa cells [6]; [12]): primarily accumulated in pro-metaphase
- pro-metaphase cells at 9 hours after G1/S (HeLa cells [6]; 400 nM, added 5 hours after release, vs untreated): accumulation of pro-metaphase cells
- concentrations at which mitotic arrest occurs (HeLa cells [6]; as low as, FIGS. 6A-6C): 100 to 200 nM
- percentage of pro-metaphase cells vs concentration (HeLa cells [6]; various concentrations for 8 hours (13 hours after G1/S release)): dose-dependent increase
- HeLa cell proliferation (HeLa cells [7]): inhibited
- proliferation of NIH 3T3 cells (NIH 3T3 cells): unaffected
- expressed MLK3 activity (MBP phosphorylation) (MLK3 [8]; HA-MLK3 in HeLa cells, CEP-11004 500 nM, 4 hours): significantly inhibited
- MLK3 activity during G2 and M-phase transitions (MLK3 [8]; data not shown): blocked
- nuclear pH3 staining during prophase (histone H3; added 5 hours after G1/S release, additional 4 hours): did not contain nuclear pH3 staining
- pH3 staining after NEB in pro-metaphase (histone H3; both untreated and treated cells): readily apparent
- lowest dose with inhibited pH3 staining in early mitotic cells (histone H3; data not shown): 200 nM
- pH3 staining in early mitosis before NEB (histone H3; p62 nucleoporin co-staining): not observed
- cell cycle progression in synchronized HeLa cells (4N DNA) (HeLa cells [9]; added 5 hours after G1/S release, 11 and 13 hours after release): arrest in G2 or M-phase
- DNA content by FACS, HeLa cells (HeLa cells [9]; treated for 20 hours, indicative of arrest in G2 or M-phase): accumulated 4N DNA
- cyclin B1 expression in synchronized HeLa cells (cyclin B1; [10]): sustained cyclin B1 expression
- cyclin B1 levels in mock transfected cells (cyclin B1; 100 or 200 nM CEP-11004, 8 hours): elevated
- cyclin B1 levels in MLK3 transfected cells (cyclin B1; 100 or 200 nM, vs mock transfected): lower cyclin B1 levels
